# Reference: patent US20100305198A1, “CATIONIC LIPIDS” (THE UNIVERSITY COURT OF THE UNIVERSITY OF EDINBURG, priority 2007, published 2010)
# Assays:
# [1] = test system: B16F10 mouse melanoma cells; assay: Transfection of pEGFP-C1 into B16F10 cell line (flow cytometry); assay type: cell-based
# Procedure: (§1) The corresponding cationic lipid 6a-l (1 mM in methanol) with or without DOPE (1 mM in methanol) were mixed in different proportions and the organic solvent removed by evaporation in an oven (37° C.) overnight. The resultant thin films were then hydrated with PBS. The solutions were vortexed (10-20 s) and incubated at ambient temperature for 30 min. Plasmid DNA or siRNA solution (0.04 mg/mL in PBS or another isotonic solution) was subsequently added and the solution vortexed (10-20 s). The lipoplexes were incubated at room temperature for 30 min before being used.
# [2] = test system: HeLa cells; assay: Transfection of pEGFP-C1 into HeLa cell line (GFP expression by flow cytometry); assay type: cell-based, Human
# Procedure: as §1
# Human HeLa cells were grown in RPMI supplemented with 4 mM glutamine, 10% FCS and 100 units/ml penicillin/streptomycin (RPMI-CM) until 80% confluence. Cells were then suspended using trypsin/EDTA and counted. 2×10^4 cells in 150 μL of RPMI-CM per well were seeded in 96 well plates and incubated overnight. The day afterwards, the different lipoplex formulations were added. Each experiment was performed in quadruplicate, using Effectene® Transfection Reagent (Qiagen) and Lipofectamine™ 2000 (Invitrogen) as positive control and untreated cells as negative control.
# After incubation for two days at 37° C. and 5% CO2 (the change of media after transfection was not necessary), the green fluorescent protein (GFP) expression, consequence of transfecting the pEGFP-C1, was evidenced using a fluorescent microscope (Leica) and measured by flow cytometry. For the flow cytometry analysis, cells were washed twice with PBS, detached with trypsin/EDTA, harvested with 2% ferum bovine serum (FBS) in PBS, centrifuged and resuspended with 2% FBS in PBS and analyzed using a BD FACSaria flow cytometer. Transfection efficiency was measured as percentage of transfected cells and total mean fluorescence. […] The number of cells analyzed per sample was 10,000. […] Each point represents a cell. The second column of graphs represents cell number in the y-axis and fluorescence intensity in the x-axis. All the graphs have been divided into two populations of cells according with the fluorescence intensity in order to give a reference for the transfection analysis: in the untransfected cell control P1 comprises 95% of the total number of cells analyzed; when cells are transfected with compound 6f P1 comprises 19.1% of the total number of cells analyzed; within the cells transfected with Effectene® Transfection Reagent P1 comprises 35.8% of the total number of cells analyzed; when cells transfected with Lipofectamine™ 2000, P1 comprises 49.8% of the total number of cells analyzed. FITC-A Mean is the mean fluorescence (arbitrary units) calculated for each population. The mean fluorescence calculated for P2 of the cells transfected with compound 6f is 120,059, which is, by far, the best result of (A)-(D).
# [3] = test system: GFP-expressing mES cells; assay: Transfection of siRNA into GFP-expressing mouse stem cells (GFP knock-down, flow cytometry); assay type: cell-based; settings: 48 h
# Procedure: as §1
# mES cells were grown in GMEM supplemented with 4 mM glutamine and 10% FBS in the absence of antibiotic until 80% confluence. Cells were then suspended using trypsin/EDTA and counted. 2×10^4 cells in 150 μL of GMEM-CM per well were seeded in 96-well plates and incubated overnight. The day afterwards, the different lipoplex formulations were added. […]
# After incubation for two days at 37° C. and 5% CO2 (change of media after transfection was not necessary), the green fluorescent protein (GFP) reduced expression was measured by flow cytometry. For the flow cytometry analysis, cells were washed twice with PBS, detached with trypsin/EDTA, harvested with 2% FBS in PBS, centrifuged and resuspended with 2% FBS in PBS and analyzed using a BD FACSaria flow cytometer. […] In Vivo Transfection and Non-Invasive Luminescence Imaging from Living Mice
# [4] = test system: human embryonic kidney (HEK) 293T cell line; assay: Transfection of pEGFP-C1 into HEK293T cell line (flow cytometry); assay type: cell-based
# Procedure: as §1
# [5] = test system: mouse lung; assay: In vivo transfection of luciferase-reporter plasmid (pLux) by intratracheal instillation and non-invasive luminescence imaging
# Procedure: Mice were anesthetized and intubated following standard protocols. 16 μg of a luciferase-reporter plasmid (pLux, 4-6 mg/mL in PBS or another isotonic buffer) was complexed with Oleyl derivative 6i (N/P 12, 1:2 mol mixture with DOPE) following the protocol described before. Lipoplex formulation (total volume=50 μL) and naked plasmid (16 μg of plasmid in 50 μL of PBS) were then administrated into the lung by direct intratracheal instillation through peroral intubation.
# Firefly luciferin (15 mg/kg) was intraperitoneally administrated to the anesthetized mice half an hour before scanning for luminescence. Mice were then imaged every 2 minutes using an IVIS SPECTRUM imaging device. FIGS. 9 and 10 show the non-invasive in vivo luminescence imaging of anesthetized mice transfected with 16 μg of a luciferase-reporter plasmid (pLux) complexed with derivative 6i (left mouse) and naked plasmid (right mouse) 72 and 120 hours after instillation respectively.
Structure (SMILES),% of GFP-expressing cells calculated via flow cytometry [1],"P1 population as % of the total number of cells analyzed ([2]; HeLa 48 h after transfection with reporter plasmid, 10,000 cells per sample, P1 = 95% in untransfected control, 6f at N/P 12, 1:2 mol mixture with DOPE)","Mean fluorescence (FITC-A Mean) calculated for P2 ([2]; HeLa 48 h after transfection, N/P 12, 1:2 mol mixture with DOPE)","Transfection of HeLa cells compared with the positive controls (Lip2000 and Effectene) ([2]; pEGFP-C1, 48 h, N/P ratio 12, 1:2 mol mixture with DOPE)",Knock-down of GFP expression compared with Lipofectamine 2000 ([3]; GFP-expressing mES cells),"Knock-down of GFP expression ([3]; GFP-transformed mouse stem cells, N/P 12, 1:2 mol mixture with DOPE, preliminary assays)",% of GFP-expressing cells calculated via flow cytometry [4],"In vivo luminescence after luciferin ([5]; 16 μg pLux complexed with lipid (N/P 12, 1:2 mol mixture with DOPE), intratracheal instillation, 72 and 120 hours after instillation)","Health of mice during the study ([5]; lipoplex instilled into the lung, followed on a daily basis)","Percentage of transfected (GFP-expressing, fluorescent) cells ([2]; HeLa 48 hours after transfection with GFP-reporter plasmid, FIG. 6)"
"CCCCCCCCCCCCCCC(=O)NC(COC(=O)CCCN)(COC(=O)CCCN)COC(=O)CCCN [Compound 6f, N-[tris-(4-aminobutiryloximethyl)methyl]pentadecamide]",43%,19.1%,"120,059 arbitrary units",much better than the two positive controls,better than Lipofectamine™ 2000,40%,62%,,,
"CCCCCCCCC=CCCCCCCCC(=O)NC(COC(=O)CCCN)(COC(=O)CCCN)COC(=O)CCCN [Compound 6i, N-[tris-(4-aminobutiryloximethyl)methyl]-9-octadecenamide]",61%,,,,,,54%,positive luminescence was detected,behaved healthily,
"CCCCCCCCC=CCCCCCCCCOC(=O)CCC(=O)NC(COC(=O)CCCN)(COC(=O)CCCN)COC(=O)CCCN [Compound 13b, 9-octadecenyl [tris(4-aminobutanoyloxymethyl)methyl]amidosuccinate]",,,,,,,,,,79%
